For one test, the species on record is Oryctolagus cuniculus. Briefly: Binding affinity to alpha-adrenergic receptor in rabbit jejunum. In kind it is tissue-based.
Test [1] deals with Adrenergic receptor alpha. Briefly: Displacement of [3H]clonidine from alpha-adrenergic receptor in rat brain. In kind it is tissue-based. For orientation: Loss of bound radioactivity is the signal in a displacement assay; it reports binding, not function.

Compound `c1ccc2c(CC3=NCCN3)cccc2c1` displayed a pD2 in the test listed under Oryctolagus cuniculus of 7.1.

By Ki is commonly meant a measure of affinity in units of concentration, obtained from inhibition or displacement. Low values mean higher affinity, high ones lower affinity. As to `c1ccc2c(c1)CCCC2C1=NCCN1` (stereo not given) [TETRAHYDROZOLINE], the pD2 in the test listed under Oryctolagus cuniculus came out at 6.5. The compound further displayed a Ki in test [1] of 11 nM.

The compound `Cc1cc(C(C)(C)C)cc(C)c1CC1=NCCN1` returned a pD2 in the test listed under Oryctolagus cuniculus of 7.1.

Regarding `Cc1cc(C(C)(C)C)c(O)c(C)c1CC1=NCCN1`, the pD2 in the test listed under Oryctolagus cuniculus amounted to 9.8.

The values are drawn from ChEMBL document CHEMBL3244159, “Ultraviolet photoelectron spectroscopy of cyclic amidines. 1. Electronic structure of some alpha-adrenergic benzylimidazolines” (J Med Chem, 1979).
